Source: patent US20240409585A1, “MACROCYCLIC IMMUNOMODULATORS” (priority 2021, published 2024)
Bridge positions count the residues as written; N and C are the ends. Square brackets hold non-standard residues; d marks the D form. Peptide text beside a SMILES is read from it. * marks the point of attachment. ξ: configuration not given here. Bip(4'-COOH) = N[C@@H](Cc1ccc(-c2ccc(C(=O)O)cc2)cc1)C(=O)O; Ala(morpholin-4-yl) = N[C@@H](CN1CCOCC1)C(=O)O; Phe(4-COOH) = N[C@@H](Cc1ccc(C(=O)O)cc1)C(=O)O; Trp(6-F) = N[C@@H](Cc1c[nH]c2cc(F)ccc12)C(=O)O; Phe(4-CH2NH2) = NCc1ccc(C[C@H](N)C(=O)O)cc1; Bip = N[C@@H](Cc1ccc(-c2ccccc2)cc1)C(=O)O; Phe(3-OMe) = COc1cccc(C[C@H](N)C(=O)O)c1; Phe(3-F) = N[C@@H](Cc1cccc(F)c1)C(=O)O; Phe(3-Me) = Cc1cccc(C[C@H](N)C(=O)O)c1; Bta = N[C@@H](Cc1csc2ccccc12)C(=O)O; mTyr = N[C@@H](Cc1cccc(O)c1)C(=O)O; 4Pal = N[C@@H](Cc1ccncc1)C(=O)O; Cha = N[C@@H](CC1CCCCC1)C(=O)O; Ile(3ξ) = CCC(C)[C@H](N)C(=O)O; AllylGly = C=CC[C@H](N)C(=O)O; Thr(3ξ) = CC(O)[C@H](N)C(=O)O; Carboxymethyl = O=C(O)C*; NMeA = CN[C@@H](C)C(=O)O; Nle = CCCC[C@H](N)C(=O)O; Orn = NCCC[C@H](N)C(=O)O; Dab = NCC[C@H](N)C(=O)O; ξC = NC(CS)C(=O)O

Target: T1, PE-labeled human PD-L1-Ig binding to Jurkat cell line over-expressing human PD-1 (Jurkat-PD-1) (Homo sapiens, UniProt Q15116)
T1 construct: expressed in transfected cells; host or cells: Jurkat
T1 sequence (Q15116 25-288): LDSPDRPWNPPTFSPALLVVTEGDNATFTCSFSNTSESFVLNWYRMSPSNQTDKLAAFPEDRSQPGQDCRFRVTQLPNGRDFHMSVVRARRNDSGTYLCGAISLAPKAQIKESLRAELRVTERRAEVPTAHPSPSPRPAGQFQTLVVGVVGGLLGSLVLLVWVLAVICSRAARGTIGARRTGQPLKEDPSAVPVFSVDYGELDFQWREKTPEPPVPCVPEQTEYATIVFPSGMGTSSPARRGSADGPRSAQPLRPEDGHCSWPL
Assay: Jurkat-PD-1 Cell Binding High-Content Screening Assay (CBA): Method 1
Conditions: Jurkat-hPD-1 cells, PE-labeled PD-L1-Ig 20 nM final; read-out: Jurkat HPDL1 PD1 IC50 (uM) (Method 1)

Row | SMILES | IC50 [µM]
1 | CC(C)C[C@@H]1NC(=O)[C@H](CCCNC(=N)N)NC(=O)[C@@H](CC(C)C)NC(=O)[C@H](C)N(C)C(=O)[C@H](CCCNC(=N)N)NC(=O)[C@H](Cc2ccc(-c3ccccc3)cc2)NC(=O)[C@H](C(C)C)NC(=O)[C@H](Cc2c[nH]c3cc(F)ccc23)NC(=O)[C@H](CC(=O)O)NC(=O)[C@H](Cc2ccc(O)cc2)NC(=O)[C@H](Cc2ccccc2)NC(=O)CSC[C@@H](C(=O)N[C@@H](C)C(N)=O)NC(=O)[C@H]([C@@H](C)O)NC(=O)[C@H](C(C)C)NC1=O [Compound 1079] ({CH2CO}-FYD[Trp(6-F)]V[Bip]R[NMeA][dL]RLVTCA-NH2; thioether N-14) | 0.25
2 | C=CC[C@@H]1NC(=O)[C@H](Cc2cccc(C)c2)NC(=O)[C@H](CC(=O)O)NC(=O)[C@H](Cc2ccncc2)NC(=O)[C@H](Cc2ccc(OCC(=O)O)cc2)NC(=O)CSCC(C(=O)NCC(N)=O)NC(=O)[C@H](CO)NC(=O)[C@H](C(C)C)NC(=O)[C@H](CC(C)C)NC(=O)[C@H](CC(N)=O)NC(=O)[C@@H](CC(C)C)NC(=O)[C@H](C)N(C)C(=O)[C@H](CC=C)NC(=O)[C@H](Cc2ccc(-c3ccccc3)cc2)NC1=O (stereo partly drawn) [Compound 1883] ({CH2CO}-Y(Carboxymethyl)[4Pal]D[Phe(3-Me)][AllylGly][Bip][AllylGly][NMeA][dL]NLVS[ξC]G-NH2; thioether N-14) | 0.06
3 | COc1cccc(C[C@@H]2NC(=O)[C@H](CC(=O)O)NC(=O)[C@H](Cc3ccc(O)cc3)NC(=O)[C@H](CC(N)=O)NC(=O)CSC[C@@H](C(=O)N[C@@H](C)C(N)=O)NC(=O)[C@H]([C@@H](C)O)NC(=O)[C@H](C(C)C)NC(=O)[C@H](CC(C)C)NC(=O)[C@H](CCCNC(=N)N)NC(=O)[C@@H](CC(C)C)NC(=O)[C@H](C)N(C)C(=O)[C@H](C(C)C)NC(=O)[C@H](Cc3ccc(-c4ccccc4)cc3)NC(=O)[C@H](C(C)C)NC2=O)c1 [Compound 1292] ({CH2CO}-NYD[Phe(3-OMe)]V[Bip]V[NMeA][dL]RLVTCA-NH2; thioether N-14) | 0.03
4 | CCCC[C@@H]1NC(=O)[C@H](CCN)NC(=O)[C@@H](CC(C)C)NC(=O)[C@H](C)N(C)C(=O)[C@H](CCCN)NC(=O)[C@H](Cc2ccc(-c3ccccc3)cc2)NC(=O)[C@H](C(C)C)NC(=O)[C@H](Cc2c[nH]c3ccccc23)NC(=O)[C@H](CC(=O)O)NC(=O)[C@H](Cc2ccc(O)cc2)NC(=O)[C@H](CC(N)=O)NC(=O)CSC[C@@H](C(=O)N[C@@H](C)C(N)=O)NC(=O)[C@H]([C@@H](C)O)NC(=O)[C@H](C(C)C)NC1=O [Compound 1267] ({CH2CO}-NYDWV[Bip][Orn][NMeA][dL][Dab][Nle]VTCA-NH2; thioether N-14) | 0.26
5 | CC(C)C[C@@H]1NC(=O)[C@H](CCCNC(=N)N)NC(=O)[C@H](Cc2csc3ccccc23)NC(=O)[C@H](C)N(C)C(=O)[C@H](CCCNC(=N)N)NC(=O)[C@H](Cc2ccc(-c3ccccc3)cc2)NC(=O)[C@H](C(C)C)NC(=O)[C@H](Cc2c[nH]c3ccccc23)NC(=O)[C@H](CC(=O)O)NC(=O)[C@H](Cc2ccc(O)cc2)NC(=O)[C@H](CC(N)=O)NC(=O)CSC[C@@H](C(=O)N[C@@H](C)C(N)=O)NC(=O)[C@H](CO)NC(=O)[C@H](C(C)C)NC1=O [Compound 1055] ({CH2CO}-NYDWV[Bip]R[NMeA][Bta]RLVSCA-NH2; thioether N-14) | 0.11
6 | CC(C)C[C@@H]1NC(=O)[C@H](CCCNC(=N)N)NC(=O)[C@@H](CC(C)C)NC(=O)[C@H](C)N(C)C(=O)[C@H](CCCNC(=N)N)NC(=O)[C@H](Cc2ccc(-c3ccccc3)cc2)NC(=O)[C@H](C(C)C)NC(=O)[C@H](Cc2c[nH]c3ccccc23)NC(=O)[C@H](CC(=O)O)NC(=O)[C@H](Cc2ccc(CN)cc2)NC(=O)[C@H](Cc2ccccc2)NC(=O)CSC[C@@H](C(=O)N[C@@H](C)C(N)=O)NC(=O)[C@H]([C@@H](C)O)NC(=O)[C@H](C(C)C)NC1=O [Compound 1083] ({CH2CO}-F[Phe(4-CH2NH2)]DWV[Bip]R[NMeA][dL]RLVTCA-NH2; thioether N-14) | 0.25
7 | CC[C@H](C)[C@@H]1NC(=O)[C@H](Cc2ccc(-c3ccccc3)cc2)NC(=O)[C@H](C(C)C)NC(=O)[C@H](Cc2c[nH]c3ccccc23)NC(=O)[C@H](CC(=O)O)NC(=O)[C@H](Cc2cccc(OC)c2)NC(=O)[C@H](Cc2ccncc2)NC(=O)CSC[C@@H](C(=O)N[C@@H](C)C(N)=O)NC(=O)[C@H]([C@@H](C)O)NC(=O)[C@H](C(C)C)NC(=O)[C@H](CC(C)C)NC(=O)[C@H](CCN)NC(=O)[C@@H](CC(C)C)NC(=O)[C@H](C)N(C)C1=O [Compound 1406] ({CH2CO}-[4Pal][Phe(3-OMe)]DWV[Bip]I[NMeA][dL][Dab]LVTCA-NH2; thioether N-14) | 0.02
8 | CC(C)C[C@@H]1NC(=O)[C@H](CCN)NC(=O)[C@@H](CC(C)C)NC(=O)[C@H](C)N(C)C(=O)[C@H](CCCNC(=N)N)NC(=O)[C@H](Cc2ccc(-c3ccccc3)cc2)NC(=O)[C@H](C(C)C)NC(=O)[C@H](Cc2c[nH]c3ccccc23)NC(=O)[C@H](CC(=O)O)NC(=O)[C@H](Cc2ccc(O)cc2)NC(=O)[C@H](Cc2ccccc2)NC(=O)CSC[C@@H](C(=O)N[C@@H](C)C(N)=O)NC(=O)[C@H]([C@@H](C)O)NC(=O)[C@H](C(C)C)NC1=O [Compound 1052] ({CH2CO}-FYDWV[Bip]R[NMeA][dL][Dab]LVTCA-NH2; thioether N-14) | 0.04
9 | CC(C)C[C@@H]1NC(=O)[C@H](Cc2c[nH]c3ccccc23)NC(=O)[C@H](CC(=O)O)NC(=O)[C@H](Cc2ccc(C(=O)O)cc2)NC(=O)[C@H](Cc2ccc(OCC(=O)O)cc2)NC(=O)CSC[C@@H](C(=O)N[C@@H](CCN)C(N)=O)NC(=O)[C@H](CO)NC(=O)[C@H](C(C)C)NC(=O)[C@H](CC2CCCCC2)NC(=O)[C@H](CCN)NC(=O)[C@@H](CC(C)C)NC(=O)[C@H](C)N(C)C(=O)[C@H](C(C)C)NC(=O)[C@H](Cc2ccc(-c3ccccc3)cc2)NC1=O [Compound 1909] ({CH2CO}-Y(Carboxymethyl)[Phe(4-COOH)]DWL[Bip]V[NMeA][dL][Dab][Cha]VSC[Dab]-NH2; thioether N-14) | 0.01
10 | CCC(C)[C@@H]1NC(=O)[C@H](Cc2ccc(-c3ccccc3)cc2)NC(=O)[C@H](C(C)C)NC(=O)[C@H](Cc2c[nH]c3ccccc23)NC(=O)[C@H](CC(=O)O)NC(=O)[C@H](Cc2ccc(O)cc2)NC(=O)[C@H](Cc2ccncc2)NC(=O)CSC[C@@H](C(=O)N[C@@H](C)C(N)=O)NC(=O)[C@H](C(C)O)NC(=O)[C@H](C(C)C)NC(=O)[C@H](CC2CCCCC2)NC(=O)[C@H](Cc2c[nH]cn2)NC(=O)[C@@H](CC(C)C)NC(=O)[C@H](C)N(C)C1=O (stereo partly drawn) [Compound 2093] ({CH2CO}-[4Pal]YDWV[Bip][Ile(3ξ)][NMeA][dL]H[Cha]V[Thr(3ξ)]CA-NH2; thioether N-14) | 0.11
11 | CC(C)C[C@@H]1NC(=O)[C@H](Cc2c[nH]c3ccccc23)NC(=O)[C@H](CC(=O)O)NC(=O)[C@H](Cc2cccc(O)c2)NC(=O)[C@H](Cc2ccccc2)NC(=O)CSC[C@@H](C(=O)N[C@@H](C)C(N)=O)NC(=O)[C@H](CO)NC(=O)[C@H](C(C)C)NC(=O)[C@H](CC(C)C)NC(=O)[C@H](CC(N)=O)NC(=O)[C@@H](C)NC(=O)[C@H](C)N(C)C(=O)[C@H](C(C)C)NC(=O)[C@H](Cc2ccc(-c3ccccc3)cc2)NC1=O [Compound 1765] ({CH2CO}-F[mTyr]DWL[Bip]V[NMeA][dA]NLVSCA-NH2; thioether N-14) | 0.04
12 | CC(C)C[C@@H]1NC(=O)[C@H](CCN)NC(=O)[C@@H](CC(C)C)NC(=O)[C@H](C)N(C)C(=O)[C@H](CCC(=O)O)NC(=O)[C@H](Cc2ccc(-c3ccccc3)cc2)NC(=O)[C@H](C(C)C)NC(=O)[C@H](Cc2c[nH]c3ccccc23)NC(=O)[C@H](CC(=O)O)NC(=O)[C@H](Cc2ccc(C(=O)O)cc2)NC(=O)[C@H](CC(N)=O)NC(=O)CSC[C@@H](C(=O)N[C@@H](C)C(N)=O)NC(=O)[C@H]([C@@H](C)O)NC(=O)[C@H](C(C)C)NC1=O [Compound 1389] ({CH2CO}-N[Phe(4-COOH)]DWV[Bip]E[NMeA][dL][Dab]LVTCA-NH2; thioether N-14) | 0.03
13 | CC(C)C[C@@H]1NC(=O)[C@H](Cc2c[nH]c3ccccc23)NC(=O)[C@H](CC(=O)O)NC(=O)[C@H](Cc2ccc(OCC(=O)O)cc2)NC(=O)[C@H](Cc2ccc(-c3ccc(C(=O)O)cc3)cc2)NC(=O)CSC[C@@H](C(=O)N[C@@H](CC(N)=O)C(N)=O)NC(=O)[C@H](CO)NC(=O)[C@H](C(C)C)NC(=O)[C@H](CC(C)C)NC(=O)[C@H](CCN)NC(=O)[C@@H](CC(C)C)NC(=O)[C@H](C)N(C)C(=O)[C@H](Cc2cnc[nH]2)NC(=O)[C@H](Cc2ccc(-c3ccccc3)cc2)NC1=O [Compound 2097] ({CH2CO}-[Bip(4'-COOH)]Y(Carboxymethyl)DWL[Bip]H[NMeA][dL][Dab]LVSCN-NH2; thioether N-14) | 0.03
14 | Cc1cccc(C[C@@H]2NC(=O)[C@H](CC(=O)O)NC(=O)[C@H](Cc3ccc(OCC(=O)O)cc3)NC(=O)[C@H](CN3CCOCC3)NC(=O)CSC[C@@H](C(=O)N[C@@H](CCN)C(N)=O)NC(=O)[C@H](CCCN)NC(=O)[C@H](C(C)C)NC(=O)[C@H](Cc3cccc(F)c3)NC(=O)[C@H](CCN)NC(=O)[C@@H](CC(C)C)NC(=O)[C@H](C)N(C)C(=O)[C@H](CCC(N)=O)NC(=O)[C@H](Cc3ccc(-c4ccccc4)cc3)NC(=O)[C@H](Cc3ccc(C(=O)O)cc3)NC2=O)c1 [Example 2294] ({CH2CO}-[Ala(morpholin-4-yl)]Y(Carboxymethyl)D[Phe(3-Me)][Phe(4-COOH)][Bip]Q[NMeA][dL][Dab][Phe(3-F)]V[Orn]C[Dab]-NH2; thioether N-14) | 0.95
15 | CC(C)C[C@@H]1NC(=O)[C@H](Cc2c[nH]c3ccccc23)NC(=O)[C@H](CC(=O)O)NC(=O)[C@H](Cc2ccc(O)cc2)NC(=O)[C@H](Cc2ccccc2)NC(=O)CSC[C@@H](C(=O)N[C@@H](C)C(N)=O)NC(=O)[C@H]([C@@H](C)O)NC(=O)[C@H](CCCNC(=N)N)NC(=O)[C@H](CC(C)C)NC(=O)[C@H](CC(N)=O)NC(=O)[C@@H](C)NC(=O)[C@H](C)N(C)C(=O)[C@H](C(C)C)NC(=O)[C@H](Cc2ccc(-c3ccccc3)cc2)NC1=O [Compound 1789] ({CH2CO}-FYDWL[Bip]V[NMeA][dA]NLRTCA-NH2; thioether N-14) | 0.12
